Assay results taken from patent US20100087650A1, “(1R,1'R)-ATRACURIUM SALTS SEPARATION PROCESS” (CHEMAGIS LTD., priority 2007, published 2010).

What was measured:
[1] = more potent than atracurium besylate itself; cited from earlier work
[2] = Stability of (1R,1′R)-atracurium besylate solution in different buffers at room temperature (HPLC, USP procedure); type: physicochemical; conditions: for % of cisatracurium besylate after 24 hours / % of cisatracurium besylate at T = 0: 90% buffer/10% methanol
Description: (§1) The stability of the (1R,1′R)-atracurium besylate solution at room temperature for time periods of up to 24 hours was checked using different types of buffers (varying by the nature of the cation and the anion). The diluent was a mixture of 90% buffer and 10% methanol. The Cation concentration in each buffer was 20 mM. The HPLC conditions were according to the USP procedure. The results are depicted in Tables 11 and 12. The degradation (D), according to the data presented in Table 11, was calculated as follows: [formula] wherein, X0=% of cisatracurium at T0, and X24=% of cisatracurium at after 24 hours.

[3] = Stability of (1R,1′R)-atracurium besylate at different pH values in Na+CH3COO−/CH3COOH buffer; type: physicochemical; conditions: for % degradation: T0 to 21.0 hours
Description: as §1, with “12. […]” for “12.”, “(D)” for “(D),”, “12” for “11,”, “X21=%” for “X24=%”

[4] = Stability of (1R,1′R)-atracurium besylate sample solution at pH 1.0 and 2.0 (nitrate buffer) at room temperature and 4° C.; type: physicochemical
Description: A sample solution of (1R,1′R)-atracurium besylate (10 mg/ml) was prepared using two buffer solutions at pH values of 1.0 and 2.0 and analyzed on the C18 stationary phase by gradient elution [20 mM KNO3 buffer (at pH corresponding to sample preparation)—methanol]. […] [formula] wherein, X0=% of cisatracurium at T0, and X6/26=% of cisatracurium at after 6 or 26 hours.

[5] = Stability of (1R,1′R)-atracurium besylate at different pH values in Na+CH3COO−/CH3COOH buffer; type: physicochemical; conditions: T0 to 21.0 hours
[6] = CaBr2/HBr buffer pH 3.5, 20 mM cation
[7] = K+H2PO4 buffer pH 3.0, 20 mM cation
[8] = NH4+CH3COO−/CH3COOH buffer pH 3.5, 20 mM cation
[9] = NH4+CH3COO−/HCOOH buffer pH 3.5, 20 mM cation
[10] = Na+CH3COO−/CH3COOH buffer pH 3.5, 20 mM cation
[11] = Na+NO3−/HNO3 buffer pH 3.0, 20 mM cation
[12] = diethylamine/CH3COOH buffer pH 3.5, 20 mM cation
[13] = triethylamine/CH3COOH buffer pH 3.5, 20 mM cation
[14] = pH = 1, room temperature, 6 hours
[15] = pH = 1, room temperature, 26 hours
[16] = pH = 2, room temperature, 6 hours

SMILES: COc1ccc(C[C@@H]2c3cc(OC)c(OC)cc3CC[N@+]2(C)CCC(=O)OCCCCCOC(=O)CC[N@@+]2(C)CCc3cc(OC)c(OC)cc3[C@H]2Cc2ccc(OC)c(OC)c2)cc1OC [cisatracurium besylate, 1R-cis-1′R-cis-2,2′2,2′-[1,5-pentanediylbis[oxy(3-oxo-3,1-propanediyl)]]bis[1-[(3,4-dimethoxyphenyl)methyl]-1,2,3,4-tetrahydro-6,7-dimethoxy-2-methyl-isoquinolinium dibenzenesulfonate]
- potency relative to atracurium besylate [1]: 3-4 times
- % of cisatracurium besylate after 24 hours [2, 6]: 54.4%
- % of cisatracurium besylate at T = 0 [2, 6]: 54.4%
- % degradation ([2]; CaBr2/HBr buffer pH 3.5, 24 hours): 0%
- % of cisatracurium besylate after 24 hours [2, 7]: 53.7%
- % of cisatracurium besylate at T = 0 [2, 7]: 54.7%
- % degradation ([2]; K+H2PO4 buffer pH 3.0, 24 hours): 1.8%
- % of cisatracurium besylate after 24 hours [2, 8]: 52.9%
- % of cisatracurium besylate at T = 0 [2, 8]: 54.7%
- % degradation ([2]; NH4+CH3COO−/CH3COOH buffer pH 3.5, 24 hours): 3.3%
- % of cisatracurium besylate after 24 hours [2, 9]: 54.3%
- % of cisatracurium besylate at T = 0 [2, 9]: 54.6%
- % degradation ([2]; NH4+CH3COO−/HCOOH buffer pH 3.5, 24 hours): 0.5%
- % of cisatracurium besylate after 24 hours [2, 10]: 52.5%
- % of cisatracurium besylate at T = 0 [2, 10]: 54.5%
- % degradation ([2]; Na+CH3COO−/CH3COOH buffer pH 3.5, 24 hours): 3.7%
- % of cisatracurium besylate after 24 hours [2, 11]: 54.5%
- % of cisatracurium besylate at T = 0 [2, 11]: 54.5%
- % degradation ([2]; Na+NO3−/HNO3 buffer pH 3.0, 24 hours): 0%
- % of cisatracurium besylate after 24 hours [2, 12]: 53.2%
- % of cisatracurium besylate at T = 0 [2, 12]: 54.7%
- % degradation ([2]; diethylamine/CH3COOH buffer pH 3.5, 24 hours): 2.7%
- % of cisatracurium besylate after 24 hours [2, 13]: 52.1%
- % of cisatracurium besylate at T = 0 [2, 13]: 54.4%
- % degradation ([2]; triethylamine/CH3COOH buffer pH 3.5, 24 hours): 4.2%
- % of cisatracurium besylate ([3]; pH 3.0, Na+CH3COO−/CH3COOH buffer, 0.0 hours): 53.4%
- % of cisatracurium besylate ([3]; pH 3.0, Na+CH3COO−/CH3COOH buffer, 10.0 hours): 51.3%
- % of cisatracurium besylate ([3]; pH 3.0, Na+CH3COO−/CH3COOH buffer, 21.0 hours): 50.0%
- change of % area of the 1R-cis,1′R-cis isomer (FIG. 7) ([3]; pH 3, after 20 hours): only slightly reduced
- % of cisatracurium besylate ([3]; pH 3.5, Na+CH3COO−/CH3COOH buffer, 0.0 hours): 53.6%
- % of cisatracurium besylate ([3]; pH 3.5, Na+CH3COO−/CH3COOH buffer, 10.0 hours): 51.0%
- % of cisatracurium besylate ([3]; pH 3.5, Na+CH3COO−/CH3COOH buffer, 21.0 hours): 49.2%
- % degradation ([3]; pH 3.5, Na+CH3COO−/CH3COOH buffer): 8.2%
- % of cisatracurium besylate ([3]; pH 4.0, Na+CH3COO−/CH3COOH buffer, 0.0 hours): 53.4%
- % of cisatracurium besylate ([3]; pH 4.0, Na+CH3COO−/CH3COOH buffer, 10.0 hours): 50.5%
- % of cisatracurium besylate ([3]; pH 4.0, Na+CH3COO−/CH3COOH buffer, 21.0 hours): 47.9%
- % of cisatracurium besylate ([3]; pH 4.5, Na+CH3COO−/CH3COOH buffer, 0.0 hours): 53.9%
- % of cisatracurium besylate ([3]; pH 4.5, Na+CH3COO−/CH3COOH buffer, 10.0 hours): 49.9%
- % of cisatracurium besylate ([3]; pH 4.5, Na+CH3COO−/CH3COOH buffer, 21.0 hours): 46.2%
- % degradation ([3]; pH 4.5, Na+CH3COO−/CH3COOH buffer): 14.3%
- % of cisatracurium besylate ([3]; pH 5.0, Na+CH3COO−/CH3COOH buffer, 0.0 hours): 53.6%
- % of cisatracurium besylate ([3]; pH 5.0, Na+CH3COO−/CH3COOH buffer, 10.0 hours): 46.1%
- % of cisatracurium besylate ([3]; pH 5.0, Na+CH3COO−/CH3COOH buffer, 21.0 hours): 38.4%
- % of cisatracurium besylate ([3]; pH 5.5, Na+CH3COO−/CH3COOH buffer, 0.0 hours): 53.6%
- % of cisatracurium besylate ([3]; pH 5.5, Na+CH3COO−/CH3COOH buffer, 10.0 hours): 40.8%
- % of cisatracurium besylate ([3]; pH 5.5, Na+CH3COO−/CH3COOH buffer, 21.0 hours): 27.8%
- change of % area of the 1R-cis,1′R-cis isomer (FIG. 7) ([3]; pH 5.5, after 20 hours): significantly reduced
- % area of the cis-cis isomer ([4]; pH = 1, 4° C., 0 hours): 54.9%
- % area of the cis-cis isomer ([4]; pH = 1, 4° C., 6 hours): 53.9%
- D, % (degradation) ([4]; pH = 1, 4° C., 6 hours): 1.8%
- % area of the cis-cis isomer ([4]; pH = 1, 4° C., 26 hours): 52.8%
- D, % (degradation) ([4]; pH = 1, 4° C., 26 hours): 3.8%
- % area of the cis-cis isomer ([4]; pH = 1, room temperature, 0 hours): 54.9%
- % area of the cis-cis isomer [4, 14]: 50.2%
- D, % (degradation) [4, 14]: 8.6%
- % area of the cis-cis isomer [4, 15]: 38.8%
- D, % (degradation) [4, 15]: 29.3%
- % area of the cis-cis isomer ([4]; pH = 2, 4° C., 0 hours): 54.8%
- % area of the cis-cis isomer ([4]; pH = 2, 4° C., 6 hours): 54.8%
- D, % (degradation) ([4]; pH = 2, 4° C., 6 hours): 0%
- % area of the cis-cis isomer ([4]; pH = 2, 4° C., 26 hours): 54.7%
- D, % (degradation) ([4]; pH = 2, 4° C., 26 hours, nitrate buffer): 0.2%
- % area of the cis-cis isomer ([4]; pH = 2, room temperature, 0 hours): 54.8%
- % area of the cis-cis isomer [4, 16]: 54.5%
- D, % (degradation) [4, 16]: 0.5%
- % area of the cis-cis isomer ([4]; pH = 2, room temperature, 26 hours): 53.8%
- D, % (degradation) ([4]; pH = 2, room temperature, 26 hours, nitrate buffer): less than 2%
- D, % (degradation) ([4]; pH = 2, room temperature, 26 hours, nitrate buffer, listed as cis-cis isomer): 1.8%
- stability under the separation conditions ([4]; separation conditions of the invention (mildly acidic or buffered aqueous mobile phase)): substantially stable
- % degradation ([5]; pH 3.0, Na+CH3COO−/CH3COOH buffer): 6.4%
- % degradation ([5]; pH 4.0, Na+CH3COO−/CH3COOH buffer): 10.3%
- % degradation ([5]; pH 5.0, Na+CH3COO−/CH3COOH buffer): 28.4%
- % degradation ([5]; pH 5.5, Na+CH3COO−/CH3COOH buffer): 48.1%
